In ChEMBL document CHEMBL5500403, “Discovery of a Double-Stapled Short Peptide as a Long-Acting HIV-1 Inactivator with Potential for Oral Bioavailability” (J Med Chem, 2024):
pEC50, pIC50: −log10 of the molar value. The source made the active and inactive calls. No cut-off for these calls is given here. Bridge positions count the residues as written; N and C are the ends. Square brackets hold non-standard residues; d marks the D form. Peptide text beside a SMILES is read from it. S5 = C=CCCC[C@](C)(N)C(=O)O

Assays:
[1] = Elimination half life in Sprague-Dawley rat at 1 mg/kg,iv administration measured upto 9 days by LC-MS/MS analysis; format: ADME, organism-based; conditions: in vivo, time < 9 day, read-out: beta t1/2 (converted)
[2] = Toxicity in BALB/c mouse assessed as change in serum ALT level at 20 mg/kg,iv administration measured upto 6 days; format: organism-based; conditions: in vivo, 144 h, time < 6 day
[3] = Half life in Sprague-Dawley rat plasma at 50 mg/kg,po administrated for 15 hrs by LC-MS/MS analysis; format: ADME, organism-based
[4] = Stability in Sprague-Dawley rat liver microsomes in presence of NADPH by LC-MS/MS analysis; format: ADME, Microsome
[5] = system: Human immunodeficiency virus 1; experiment: Binding affinity to cytoplasmic LLP1 domain of HIV-1 GP41 assessed as change in entropy by isothermal titration calorimetry
[6] = Toxicity in female BALB/c mouse assessed as change in body weight at 100 mg/kg,iv administration measured upto 14 days; format: organism-based; conditions: in vivo, 336 h, time < 14 day
[7] = Proteolytic stability assessed as Pepsin (unknown origin) mediated compound degradation incubated for 4 hrs by LC-MS/MS analysis; format: ADME; conditions: human
[8] = Biodistribution in Sprague-Dawley rat intestine assessed as fold increase in AUC at 1 mg/kg,iv administration measured after 12 days by LC-MS/MS analysis; format: ADME, organism-based; conditions: in vivo, 288 h, time 12 day
[9] = Stability in human liver microsomes in presence of NADPH by LC-MS/MS analysis; format: ADME, Microsome
[10] = Toxicity in BALB/c mouse assessed as histopathological change in kidney at 20 mg/kg,iv administration measured after 14 days by hematoxylin and eosin staining based assay; format: organism-based; conditions: in vivo, 336 h, time 14 day
[11] = system: Human immunodeficiency virus 1; experiment: Antiviral activity against T20-resistant HIV-1 NL4-3 harboring […] V38E and N42S mutant infected in human MT2 cells assessed as inhibition of viral growth pretreated with virus for 30 mins followed by infection with cells incubated for 72 hrs by ELISA; format: functional, organism-based
[12] = Biodistribution in Sprague-Dawley rat spleen assessed as fold increase in AUC at 1 mg/kg,iv administration measured after 12 days by LC-MS/MS analysis; format: ADME, organism-based; conditions: in vivo, 288 h, time 12 day
[13] = Plasma protein binding in human by LC-MS/MS analysis; format: ADME, cell-free; conditions: read-out: PPB (converted)
[14] = Toxicity in Sprague-Dawley rat assessed as cell degeneration in kidney at 50 mg/kg,iv administration measured after 14 days by hematoxylin and eosin staining based assay; format: organism-based; conditions: in vivo, 336 h, time 14 day
[15] = Toxicity in BALB/c mouse assessed as change in serum creatinine level at 100 mg/kg,iv administration measured upto 6 days; format: organism-based; conditions: in vivo, 144 h, time < 6 day
[16] = Toxicity in Sprague-Dawley rat assessed as inflammatory cell infiltration in kidney at 50 mg/kg,iv administration measured after 14 days by hematoxylin and eosin staining based assay; format: organism-based; conditions: in vivo, 336 h, time 14 day
[17] = system: Human immunodeficiency virus 1; experiment: Antiviral activity against HIV-1 IIIB infected in human MT2 cells assessed as inhibition of viral growth at 5 uM preincubation of compound with 10% HSA; format: functional, organism-based
SARS-CoV-2 = experiment: Antiviral activity against SARS-CoV-2 infected in human Caco-2 cells assessed as inhibition of viral growth at 2000 nM; format: functional, organism-based; conditions: Severe acute respiratory syndrome coronavirus 2
[18] = AUClast in Sprague-Dawley rat at 10 mg/kg,iv administration measured upto 9 days by LC-MS/MS analysis; format: ADME, organism-based; conditions: in vivo, time < 9 day
[19] = Toxicity in Sprague-Dawley rat assessed as change in serum ALT level at 50 mg/kg,iv administration measured upto 6 days; format: organism-based; conditions: in vivo, 144 h, time < 6 day
[20] = Drug concentration in Sprague-Dawley rat plasma assessed as fold increase in drug uptake at 10 mg/kg,iv administrated upto 8 days by LC-MS/MS analysis; format: ADME, organism-based; conditions: in vivo, 192 h, time < 8 day
[21] = Toxicity in Sprague-Dawley rat assessed as inflammatory cell infiltration in liver at 50 mg/kg,iv administration measured after 14 days by hematoxylin and eosin staining based assay; format: organism-based; conditions: in vivo, 336 h, time 14 day
[22] = Toxicity in BALB/c mouse assessed as histopathological change in liver at 100 mg/kg,iv administration measured after 14 days by hematoxylin and eosin staining based assay; format: organism-based; conditions: in vivo, 336 h, time 14 day
[23] = Toxicity in Sprague-Dawley rat assessed as change in serum creatinine level at 50 mg/kg,iv administration measured upto 6 days; format: organism-based; conditions: in vivo, 144 h, time < 6 day
[24] = Drug concentration in Sprague-Dawley rat plasma at 10 mg/kg,iv administrated upto 8 days by LC-MS/MS analysis; format: ADME, organism-based; conditions: in vivo, 192 h, time < 8 day
[25] = system: Human immunodeficiency virus 1; experiment: Antiviral activity against T20-resistant HIV-1 NL4-3 harboring […] N38A and N42T mutant infected in human MT2 cells assessed as inhibition of viral growth pretreated with virus for 30 mins followed by infection with cells incubated for 72 hrs by ELISA; format: functional, organism-based
[26] = Total clearance in Sprague-Dawley rat at 10 mg/kg,iv administration measured upto 9 days by LC-MS/MS analysis; format: ADME, organism-based; conditions: in vivo, 216 h, time < 9 day
[27] = system: Human immunodeficiency virus 1; experiment: Antiviral activity against T20-resistant HIV-1 NL4-3 harboring […] N42T and N43K mutant infected in human MT2 cells assessed as inhibition of viral growth pretreated with virus for 30 mins followed by infection with cells incubated for 72 hrs by ELISA; format: functional, organism-based
[28] = Toxicity in BALB/c mouse assessed as histopathological change in kidney at 100 mg/kg,iv administration measured after 14 days by hematoxylin and eosin staining based assay; format: organism-based; conditions: in vivo, 336 h, time 14 day
[29] = system: Human immunodeficiency virus 1; experiment: Antiviral activity against HIV-1 clinical isolate X4-89BZ167 assessed as reduction in viral growth by measuring p24 antigen level incubated for 2 hrs by ELISA; format: functional, organism-based; conditions: Human immunodeficiency virus 1, clinical isolate X4-89BZ167, 2 h
[30] = system: Human immunodeficiency virus 1; experiment: Antiviral activity against HIV-1 IIIB infected in human MT2 cells assessed as inhibition of viral growth at 5 uM preincubation of compound with 20% HSA; format: functional, organism-based
[31] = system: Human immunodeficiency virus 1; experiment: Antiviral activity against HIV-1 Bal-R5 infected in human CEMx174 5.25M7 cells assessed as inhibition of viral growth pretreated with virus for 30 mins followed by infection with cells incubated for 72 hrs by ELISA; format: functional, organism-based; conditions: Human immunodeficiency virus 1, Bal-R5, CEMx174 5.25M7
[32] = Toxicity in Sprague-Dawley rat assessed as histopathological change in kidney at 50 mg/kg,iv administration measured after 14 days by hematoxylin and eosin staining based assay; format: organism-based; conditions: in vivo, 336 h, time 14 day
[33] = Cytotoxicity against human MT2 cells; format: toxicity, cell-based
[34] = Toxicity in male BALB/c mouse assessed as change in body weight at 20 mg/kg,iv administration measured upto 14 days; format: organism-based; conditions: in vivo, 336 h, time < 14 day
[35] = Toxicity in BALB/c mouse assessed as change in serum creatinine level at 20 mg/kg,iv administration measured upto 6 days; format: organism-based; conditions: in vivo, 144 h, time < 6 day
[36] = system: Human immunodeficiency virus 1; experiment: Antiviral activity against HIV-1 IIIB assessed as reduction in viral growth by measuring p24 antigen level incubated for 2 hrs by ELISA; format: functional, organism-based; conditions: Human immunodeficiency virus 1, IIIB
[37] = Elimination half life in Sprague-Dawley rat at 10 mg/kg,iv administration measured upto 9 days by LC-MS/MS analysis; format: ADME, organism-based; conditions: in vivo, time < 9 day, read-out: beta t1/2

CC(=O)NCC(=O)N[C@@]1(C)CCC/C=C\CCC[C@@](C)(C(=O)N[C@@H](Cc2ccc(O)cc2)C(=O)N[C@@H](CC(C)C)C(=O)N[C@@]2(C)CCC/C=C\CCC[C@@](C)(C(=O)N[C@@H](Cc3ccc(O)cc3)C(=O)N[C@@H](Cc3c[nH]c4ccccc34)C(N)=O)NC(=O)[C@H](CC(C)C)NC(=O)[C@H](CC(C)C)NC(=O)[C@H](CC(N)=O)NC2=O)NC(=O)[C@H](CC(C)C)NC(=O)[C@H](C)NC(=O)[C@H](CCC(=O)O)NC1=O (Ac-G[S5]EAL[S5]YL[S5]NLL[S5]YW-NH2; staple (Z) 2-6, 9-13)
half-life [1]: > 2.92 days
Activity [2]: Non-Toxic
half-life [3]: 2470 min
Stability [4]: Stable
deltaS [5]: -70.2 cal/mol/deg
Activity [6]: Non-Toxic
Stability [7]: Stable
fold change (FC) [8]: 10
Stability [9]: Stable
Activity [10]: Non-Toxic
pIC50 [11]: 7.49
fold change (FC) [12]: 10
fraction unbound [13]: 0.182
Activity [14]: Non-Toxic
Activity [15]: Non-Toxic
Activity [16]: Non-Toxic
Activity [17]: Active
Activity (SARS-CoV-2): inactive
AUC(0-t) at 216 h [18]: 334 µg·h/mL
Activity [19]: Non-Toxic
fold change (FC) [20]: 8.3
Activity [21]: Non-Toxic
Activity [22]: Non-Toxic
Activity [23]: Non-Toxic
Drug uptake [24]: Active
pIC50 [25]: 7.91
CL [26]: 12 mL/h/kg
pIC50 [27]: 6.91
Activity [28]: Non-Toxic
pEC50 [29]: 7.35
Activity [30]: Active
pIC50 [31]: 6.74
Activity [32]: Non-Toxic
CC50 [33]: 5.07 µM
Activity [34]: Non-Toxic
Activity [35]: Non-Toxic
pEC50 [36]: 8.09
half-life [37]: > 2.92 days
